Data on three compounds can be found in article PMC8869984, “Multifunctional Silver(I) Complexes with Metronidazole Drug Reveal Antimicrobial Properties and Antitumor Activity against Human Hepatoma and Colorectal Adenocarcinoma Cells” (Cancers, 2022).

A word on the pIC50: it is the negative decadic logarithm of the IC50, by convention in mol/L.

pIC50: −log10 of the molar value.

The subject of one data set is HepG2 cells. Nature of the data set: LDH leakage assay (membrane integrity), 72 h exposure. The class given is cell-based, human. As for the experimental part:
(§1) The human hepatoma (HepG2) and colorectal adenocarcinoma (Caco-2) cells were purchased from the American Type Culture Collection: ATCC HB-8065 and ATCC HTB-37, respectively. These cells were cultured in Minimum Essential Medium Eagle (MEME) (ATCC). The murine fibroblasts cell line (Balb/c 3T3 clone A31) (gift from the Department of Swine Diseases of the National Veterinary Research Institute in Pulawy) was cultured in Dulbecco’s Modified Eagle Medium (DMEM) (ATCC). The media were supplemented with 10% BCS (Balb/c 3T3), 10% FBS (HepG2), 20% FBS (Caco-2), 1% L-glutamine, 1% antibiotic solution. The cells were maintained in 75 cm^2 cell culture flasks (NUNC) in a humidified incubator at 37 °C in an atmosphere of 5% CO2. The medium was refreshed every two or three days, and the cells were trypsinized by 0.25% trypsin–0.02% EDTA after reaching 70–80% confluence. Single cell suspensions were prepared and adjusted to a density of 2 × 10^5 cell/mL^−1 (HepG2), 1 × 10^5 cell/mL^−1 (Caco-2) and 5 × 10^4 cell/mL^−1 (Balb/c 3T3). The cell suspension was transferred to 96-well plates (100 µL/well) and incubated for 24 h before the exposure to the studied compounds. Stock solutions of ligands and metal complexes were prepared in sterile water and diluted with culture medium to obtain a concentration range from 0.1 to 10 µM. The final concentration of sterile water was 0.1% in the medium. […] As a negative control, cultured cells were grown in the absence of studied compounds. Each concentration was tested in six replicates in three independent experiments. Cytotoxicity was assessed after 72 h of exposure of the cells to compounds. The medium was not changed during the incubation time.
(§2) The integrity of the plasma membrane was assessed through the test of lactate dehydrogenase (LDH) release, which was monitored using the commercially available Cytotoxicity Detection Kit (LDH) (Roche Diagnostics, Warsaw, Poland). […] The absorbance was measured at 492 nm in a microplate reader Synergy HTX multi-mode reader (BioTek® Instruments Inc., Winooski, VT, USA) using a blank as a reference. […]
(LDH leaks from cells whose membrane has failed.)

For data set [1], the system named is Caco-2 cells. Nature of the data set: MTT assay (mitochondrial activity), 72 h exposure. The class given is cell-based, human. To be noted: Caco-2, MTT. In general terms: Tetrazolium dyes change colour on reduction, which living cells bring about.
The test system of data set [2] is Caco-2 cells. Nature of the data set: NRU assay (lysosomal activity), 72 h exposure. To be noted: Caco-2, NRU. It is filed as cell-based, human.
Data set [3] relates to Caco-2 cells. Description: TPC assay (total protein content), 72 h exposure. The following applies: Caco-2, TPC. It is filed as cell-based, human.
Data set [4] has as its system Balb/c 3T3 cells. Description: TPC assay (total protein content), 72 h exposure. It is filed as cell-based, murine. As for the experimental part:
as §1
This assay is based upon staining the total cellular protein (proliferation). […] The absorbance was measured at 595 nm in a microplate reader Synergy HTX multi-mode reader (BioTek® Instruments Inc., Winooski, VT, USA) using a blank as a reference. Cytotoxicity was expressed as a percentage of the negative control. […]

Data set [5] relates to Balb/c 3T3 cells. Nature of the data set: LDH leakage assay (membrane integrity), 72 h exposure. The class given is cell-based, murine. As for the experimental part: as §1, §2
The subject of data set [6] is reference aerobic and anaerobic microorganisms (ATCC). Description: micro-dilution broth method, whole panel of reference strains. The class given is cell-based. The following applies: against the majority of tested bacterial strains. (Dilution methods test growth across graded concentrations, often in twofold steps.)
Another data set is described as follows: solubility in water. The class given is physicochemical. The following applies: qualitative statement.
The subject of the next data set is S. aureus biofilm. Nature of the data set: qualitative antibiofilm activity, confocal laser scanning microscope (CLSM). To be noted: 500 mg/L, 24 h exposure.
For data set [7], the system named is Balb/c 3T3 cells. Nature of the data set: cytotoxicity, MTT, NRU, TPC and LDH assays taken together, 72 h. The class given is cell-based, murine. The following applies: non-cancer Balb/c 3T3 cells, range over MTT, TPC, LDH. As for the experimental part:
The human hepatoma (HepG2) and colorectal adenocarcinoma (Caco-2) cells were purchased from the American Type Culture Collection: ATCC HB-8065 and ATCC HTB-37, respectively. These cells were cultured in Minimum Essential Medium Eagle (MEME) (ATCC). The murine fibroblasts cell line (Balb/c 3T3 clone A31) (gift from the Department of Swine Diseases of the National Veterinary Research Institute in Pulawy) was cultured in Dulbecco’s Modified Eagle Medium (DMEM) (ATCC). The media were supplemented with 10% BCS (Balb/c 3T3), 10% FBS (HepG2), 20% FBS (Caco-2), 1% L-glutamine, 1% antibiotic solution. […] Cytotoxicity was assessed after 72 h of exposure of the cells to compounds. […]
The metabolic activity of living cells was assessed by the measurement of the activity of dehydrogenases. […] The plate was shaken for 15 min at room temperature and transferred to a microplate reader Synergy HTX multi-mode reader (BioTek® Instruments Inc., Winooski, VT, USA) to measure the absorbance at 570 nm, using a blank as a reference. Cytotoxicity was expressed as a percentage of the negative control.
This method is based on staining living cells with neutral red, which readily diffuses through the plasma membrane and accumulates in lysosomes. […] Cytotoxicity was expressed as a percentage of the negative control. […]

`Cc1ncc([N+](=O)[O-])n1CCO.Cc1ncc([N+](=O)[O-])n1CCO.Cc1ncc([N+](=O)[O-])n1CCO.Cc1ncc([N+](=O)[O-])n1CCO.O=S(=O)([O-])[O-].[Ag+].[Ag+]` [[Ag(MTZ)2]2SO4]: the “lowest concentration with significant (p ≤ 0.05) effect” value is 5.0 µM in the data set on HepG2 cells (Figure 6); 5.0 µM in the data set with Balb/c 3T3 cells [4] (Balb/c 3T3, TPC, Figure 6); 5.0 µM with Balb/c 3T3 cells [5] (Balb/c 3T3, LDH, Figure 6). The “lowest concentration with inhibition of mitochondrial activity” value in the data set on Caco-2 cells [1] (Figure 6) worked out at 1.0 µM. In addition, in the data set with Caco-2 cells [2] (Figure 6), the “lowest concentration with inhibition of lysosomal activity” value was found to be 1.0 µM. Moreover, the “lowest concentration with decreased total protein content” value in the data set with Caco-2 cells [3] (Figure 6) was determined as 5.0 µM. Besides, in data set [6], the “minimal inhibition concentration (MIC), range” value fell in the range of 0.24 to 250 µg/mL. The solubility in water result in “solubility in water” is listed as “more soluble in water in comparison to Ag2SO4”. Further, the “effect on biofilm (CLSM, qualitative)” value with S. aureus biofilm is listed as “significantly reduced biofilm density”.
Regarding `Cc1ncc([N+](=O)[O-])n1CCO` [MTZ, 2-Methyl-5-nitroimidazole-1-ethanol], the pIC50 in the data set on HepG2 cells (Homo sapiens, mean ± SD, n = 3) was below 5.00; in the data set on Caco-2 cells [1] (Homo sapiens, mean ± SD, n = 3) it was below 5.00; with Caco-2 cells [2] (Homo sapiens, mean ± SD, n = 3), below 5.00; in the data set with Caco-2 cells [3] (Homo sapiens, mean ± SD, n = 3), below 5.00; in the data set with Balb/c 3T3 cells [4] (Mus musculus, BALB/c3T3, Balb/c 3T3, TPC, mean ± SD, n = 3) it was below 5.00; in the data set with Balb/c 3T3 cells [5] (Mus musculus, BALB/c3T3, Balb/c 3T3, LDH, mean ± SD, n = 3), below 5.00.
Regarding `O=S(=O)([O-])[O-].[Ag+].[Ag+]` [Ag2SO4, silver sulfate], the pIC50 with Balb/c 3T3 cells [7] was 5.59 to 5.72.
